Source: patent publication US20240123022A1, “A STABLE ANTI-ANGIOGENIC AND ANTI-INFLAMMATORY PHARMACEUTICAL FORMULATION AND PHARMACEUTICAL COMBINATION FOR TREATMENT AND PREVENTION OF PSORIASIS” (priority 2021, published 2024)

What was measured:
[1] = test system: HUVEC cells; test: Tube formation assay in HUVEC cells (VEGF induced); format: cell-based, human; set-up: Tube formation assay results, Avg: scale not given here
Procedure: HUVEC cells were used as test system to determine angiogenic effect of IS217 by assessing the inhibitory effects of test item on endothelial cells tube formation. Prior to the tube formation assay, test item of concentration ranging 0.01 μg/ml to 1000 μg/ml were used to treat endothelial cells for its cytotoxicity effect to assess suitable concentration for tube formation assay. […] The cells corresponding to positive control group were treated with bevacizumab of concentration 1000 μg/ml. The degree of angiogenesis progression was assessed based on visual pattern recognition of photomicrographs of HUVEC cells.

[2] = test system: Human endothelial cells (EA.hy.926); test: Tube formation assay in EA.hy.926 cells; format: cell-based
Procedure: This assay was performed to determine ability of various compounds to promote or inhibit tube formation. Compounds that are able to inhibit tube formation could be useful in various diseases, such as cancer, where tumors stimulate new blood vessel formation to receive oxygen and nutrients in order to grow beyond a relatively small size.
Human endothelial cells (EA.hy.926) grown in DMEM and about 10% FBS were used as test system to determine angiogenic effect of IS217 by assessing inhibitory effects of test item on endothelial cells tube formation.
Prior to the tube formation assay, test item of concentration ranging 1 μg/ml, 10 μg/ml, 100 μg/ml, 500 μg/ml and 1000 μg/ml were used to treat endothelial cells for its cytotoxicity effect to assess suitable concentration for tube formation assay. The cells corresponding to positive control group were treated with paclitaxel. Anthralin was also used as positive control for in house validation.
After about 24 hours of incubation in CO2 incubator, 20 μl of 5 mg/ml of MTT was added to identify percentage cytotoxicty by biotek synergy HT plate reader. After that cells were processed for tube formation assay with selected concentrations of TI. The degree of angiogenesis progression was assessed based on visual pattern recognition of photomicrographs of EA.hy.926 cells.

[3] = Plasma stability in human plasma; format: in vitro ADME
Procedure: Following centrifugation, the supernatant was analyzed on HPLC-UV.

[4] = test system: human endothelial cell line (EA.hy926); conditions: EA.hy926, 1-5000 μg/ml, 72 h
Procedure: Here MTT assay and BioTek Synergy HT multimode reader were used to determine the cell viability in test cells. […] Once within about 72 hours of incubation, re-treatment was done for test items at every 24 hours in 3 additions. 150 μl of DMSO was added to aspirated supernatant and observed at 540 nm using BioTek Synergy HT plate reader.

[5] = test system: Imiquimod (IMQ) induced psoriasis model using Balb/c mice; test: IMQ induced psoriasis model, routes of administration (SC, IM, IV, IP); format: in vivo; conditions: for TNF-α reduced to / reduction in IL-23: ear homogenate
Procedure: The study was conducted in healthy, adult female Balb/c mice. All the animals were acclimatized to laboratory condition prior to experiment initiation.
Animals were randomized into 10 groups containing 6 animals each group, based on their body weight. Approximately 63 mg of IMQ cream (5%) (containing 3.125 mg of IMQ) was weighed and applied topically each on dorsal area (shaved back) and right ear of mice for 8 days in group 3-10. Groups 1 and 2 were served as controls and were treated with appropriate vehicle. Later groups 1 and 2 were merged for better calculation purpose.
Body weight, ear thickness and dorsal skin thickness was measured daily using digital caliper. Erythema index was recorded by mexameter and clinical scoring was also done daily for dorsal psoriatic area.
On day 9, animals were anesthetized for blood collection followed by euthanasia by C02 asphyxiation as per in-house approved standard protocol.
About 4 mm ear punch biopsy was collected, weighed and fixed in about 10% neutral buffer formalin for histopathological analysis (via H and E staining). Remaining ear was excised and stored at about −80° C. for inflammatory cytokine analysis. Dorsal skin was also collected, and half was kept in formalin. Spleen was also collected and weighed and kept in formalin.
In this study three different routes i.e., SC, IM and IV at different doses ranging from 0.3, 0.6 and 1.2 mg/kg were used to see dose response curve, the results were as follows: […]

[6] = test system: MAPK1 (MEK 1); test: Z′LYTE activity assay, tyrosine kinases; format: biochemical; conditions: 10 μg/ml-250 μg/ml
Description: (§1) Tyrosine kinases play key role in pathogenesis of psoriasis IS217 was investigated for possible inhibition of various tyrosine kinase, which play crucial role in pathogenesis of psoriasis. The method employed to detect the effect was Z′LYTE activity assay.

[7] = test system: other kinases; test: Z′LYTE activity assay, tyrosine kinases; format: biochemical; conditions: low concentration tested of 10 μg/ml
Description: as §1

[8] = test system: JAK-STAT pathway; test: Z′LYTE activity assay, tyrosine kinases; format: biochemical
Description: as §1

[9] = test system: Caspase 3; test: Caspase-3 activation assay in HaCaT cells; format: cell-based, human; conditions: 100 to 5000 μg/mL, 24 h and 48 h, vs untreated cells
Description: The study aimed to determine action of IS217 on the death mediator Caspase 3 which acts as dominant regulator during cell death induction. HaCaT cells were used as test system and in house validation assay was done by using Anthralin dissolved in DMSO (positive control).

[10] = test system: IMQ induced psoriasis model using Balb/c mice; format: in vivo
Procedure: The experimental procedure and doses and route of administration are same as IMQ model. Test item IS217 was administered subcutaneously to diseased animals at different dose levels of 0.15 mg/kg, 0.30 mg/kg, 0.60 mg/kg, 1.2 mg/kg, 2.4 mg/kg and 4.8 mg/kg.

## H-FAKKFAKKFK-OH [IS217, H-Phe-Ala-Lys-Lys-Phe-Ala-Lys-Lys-Phe-Lys-OH]
[1]; 100 μg + VEGF
  Tube formation assay results, Avg: 2.55
[1]; 100 μg, without VEGF
  Tube formation assay results, Avg: 0.33
[1]; 250 μg + VEGF
  Tube formation assay results, Avg: 1.33
[1]; 250 μg, without VEGF
  Tube formation assay results, Avg: 0.33
[1]; 500 μg + VEGF
  Tube formation assay results, Avg: 0.88
[1]; 500 μg, without VEGF
  Tube formation assay results, Avg: 0.33
[1]; 1000 μg + VEGF
  Tube formation assay results, Avg: 0.55
[1]; 1000 μg, without VEGF
  Tube formation assay results, Avg: 0.33
[1]; HUVEC, 1000 μg/ml
  inhibition of endothelial morphogenesis on matrigel: Complete inhibition
[1]; HUVEC, all test concentrations 100 μg/ml to 1000 μg/ml
  endothelial tube formation: block endothelial tube formation
[2]; Ea.hy.926, 500 μg/ml
  inhibition of endothelial morphogenesis on matrigel: Complete inhibition
[2]; Ea.hy.926, all test concentrations 1 μg/ml to 1000 μg/ml
  endothelial tube formation: block endothelial tube formation
[3]; human plasma, 15 minutes, read-out: IS217 remaining
  remaining at 0.25 h, 100 μg/ml: 90.7%
[3]; human plasma, 30 minutes, read-out: IS217 remaining
  remaining at 0.5 h, 100 μg/ml: 105%
[3]; human plasma, 45 minutes, read-out: IS217 remaining
  remaining at 0.75 h, 100 μg/ml: 85.2%
[3]; human plasma, 60 minutes, read-out: IS217 remaining
  remaining at 1 h, 100 μg/ml: 91.1%
[3]; human, plasma
  plasma stability: stable in human plasma
[3]; human, plasma, from 60 minutes incubation, read-out: calculated half-life in human plasma
  half-life at 100 μg/ml: 6.92 h
[4]
  percentage inhibition of FBS induced proliferation of endothelial cells: effective upto 2000 μg/ml only
[5]; 0.3 mg/kg SC, day 9, vs other doses and routes
  ear biopsy weight: maximum effect
[5]; 0.3 mg/kg SC, p < 0.01
  hyperkeratosis, edema, inflammatory cell infiltration and ear thickness in histopathology examination of ear: reduced
[5]; 0.6 mg/kg
  TNF-α reduced to: 13.94%
  reduction in IL-23: 49.68%
[5]; 1.2 mg/kg SC
  TNF-α level in ear tissue homogenate: partially reduced
[5]; 1.2 mg/kg SC, p < 0.01
  TNF-α and IL-23 levels, rete peg proliferation in histopathology examination of ear: dose lowered
[5]; 1.2 mg/kg dose
  absolute ear thickness reduction, maximum inhibition: 80.36%
[5]; 1.2 mg/kg
  TNF-α reduced to: 24.25%
  reduction in IL-23: 59.85%
[5]; 0.3-1.2 mg/kg SC, by all above observations
  reduction of IL-23 levels: prominent dose dependent results
[5]; IM route
  percentage inhibition of ear inflammation, maximum inhibitory activity: 59.12%
[5]; IS217 SC, IM, IV, IP, 8 days
  body weight: No significant change
[5]; IV treatment
  IL-17 in ear tissue homogenate: maximum inhibition
[5]; IV treatment group, not statistically significant
  spleen weight reduction: maximum reduction
[5]; SC treatment groups
  spleen weight reduction: No effect
[5]; SC, low dose of 0.3 mg/kg
  IMQ induced hyperkeratosis, edema, Rete Peg proliferation, inflammatory cell infiltration (ear histopathology): maximum reduction
[5]; any treatment group
  cumulative psoriatic score of dorsal area: No significant reduction
  erythema index: No significant reduction
[5]; low dose, from day 6
  percentage inhibition of ear inflammation, maximum inhibitory response: 32.08%
[5]; mouse, in vivo
  IL-17A and spleen weight: no trend
[6]
  inhibition of MAPK1 (MEK 1): good inhibition
[7]
  inhibition of other kinases: Moderate to low inhibition
[8]
  inhibition of JAK-STAT pathway: No inhibition
[9]
  activation of Caspase 3: did not lead to activation
[10]; 0.3 mg/kg SC
  inhibition of ear thickness: 36.34%
[10]; IS217 SC 0.15-4.8 mg/kg q.d., 8 days
  psoriatic score PASI and ear punch biopsy: lowering of
[10]; SC 0.15-4.8 mg/kg
  TNF-α level: no trend
[10]; dose level of 0.3 mg/kg SC
  ear thickness (life phase), punch biopsy, cumulative psoriatic scoring and spleen weight: maximum effect
[10]; p < 0.01
  Ear homogenate TNF-α, IL-23, MPO: MPO reduction
